According to patent US20250327028A1, “ENGINEERED PLATELETS AS TARGETED PROTEIN DEGRADERS” (Wisconsin Alumni Research Foundation, priority 2024, published 2025):

What was measured:
[1] = test system: WT MDA-MB-231 cells; test: Colocalization between internalized NeutrAvidin and lysosome marker LAMP1; type: cell-based, human; details: HAC-B 5 μM, NA-647 0.5 μM 1 h
Procedure: Colocalization between internalized NeutrAvidin™ and lysosome maker: 5×10^4 WT MDA-MB-231 cells were seeded in a confocal dish and cultured for 24 h at 37° C. Then, the cells were treated with free HAC-B at 5 μM for 2 h. Next, the drug-containing medium was removed, and PBS was used to wash the cells twice, followed by incubating the cells in the blank medium containing NA-647 at 0.5 μM for 1 h. Subsequently, the cells were washed with PBS twice and fixed with 4% PFA at room temperature for 20 min. Subsequently, the cell sample was treated with the permeabilization solution (0.5% Triton™ X-100 in PBS) at room temperature for another 20 min, followed by incubation with the blocking buffer (1% BSA in PBS) at room temperature for 1 h. The cell sample was incubated with the rabbit anti-LAMP1 antibody (Cell Signaling Technology/9091T) overnight at 4° C., followed by the incubation with the Alexa Fluor®488-conjugated anti-rabbit IgG H & L secondary antibodies at room temperature for 2 h. After staining with Hoechst 33342, the cells were subjected to Leica SP8 Confocal WLL STED microscopy for observation.

[2] = test system: HSP90; test: HAC-B-mediated HSP90 labeling, streptavidin-mediated immunoblot analysis; type: cell-based, murine; details: 4T1 cells, 2 h
Procedure: Identification of HAC-B-mediated HSP90 labeling: Streptavidin-mediated immunoblot analysis: 4T1 cells were seeded in 6-well culture plates with a density of 5×10^4 cells in each well and cultured for 24 h. Following washing with PBS twice, the cells were treated with free HAC-B at the indicated concentrations for 2 h. Then, the cells were washed with PBS and lysed on ice with the RIPA buffer containing PMSF (1 mM) and the phosphatase inhibitor cocktail for 30 min. Next, the lysates were centrifuged at 10,000 g for 10 minutes at 4° C., and the corresponding supernatants were collected, followed by quantification of the total proteins in the supernatant through the BCA assay. Subsequently, the proteins in the supernatant were mixed with ¼ volume of 5× sample buffer formulated by Tris-HCl (pH 6.8, 312.5 mM), sucrose (25%), SDS (10%), bromophenol blue (0.025%), and DTT (250 mM). After incubation for 1 h at room temperature, equal amounts of proteins from different samples ([…]) were loaded into the 10% Bis-Tris gel. The separated proteins were transferred to PVDF membrane before the membranes were blocked with 5% nonfat milk in PBS-T. The PVDF membrane was incubated with streptavidin-HRP at room temperature for 2 h. […] Finally, the bands were treated with ECL western blot substrate and detected by the iBright™ imaging system.

[3] = test system: 4T1-Luc tumors; test: Treatment efficacy in post-surgery BALB/c mice with orthotopic 4T1-Luc breast cancer; type: in vivo; details: 2×10^8 platelets i.v. or free HAC 5 mg/kg i.p., every third day for 4 times
Text: Evaluation of treatment efficacy and biosafety in post-surgical 4T1 tumor-bearing mice: Post-surgery BALB/c mice with orthotopic 4T1-Luc-breast cancer were used to evaluate the tumor recurrence, metastasis, and biosafety profiles after iDePLT or eDePLT treatments. The treatment efficacy of iDePLT was also studied in the post-surgery NSG mice with orthotopic patient-derived xenografts (PDX) breast cancer.
Establishment of post-surgery models with BALB/c mice: 1×10^6 4T1-Luc cells were suspended in a PBS containing 50% Matrigel® (Corning®/354234). Female 8-week-old BALB/c mice were anesthetized and injected with 50 μL of the cell suspensions into the fourth mammary gland fat pads. After the tumor volumes reached about 100-200 mm^3, the tumor-bearing mice were anesthetized and placed under the microscope, followed by surgical resection to totally remove the visible tumor tissues. Following wound closure, the post-surgery mice were randomly assigned to different treatment groups.
Evaluation of treatment efficacy and biosafety in post-surgery BALB/c mice: As for the treatments with platelets, the platelets were freshly isolated from the healthy female BALB/c mice and suspended in PBS for intravenous (i.v.) injection after the necessary engineering. The free iHAC and eHAC were intraperitoneally (i.p.) injected after dispersing in the formulation of 10% DMSO, 40% polyethylene glycol 300 (PEG300), 5% Tween TM-80, and 45% saline. From the same day after surgery, the mice were anesthetized and i.p. injected with D-luciferin potassium salt (150 mg/kg) in 100 μL in PBS. The bioluminescence of post-surgery mice in each group was detected by Perkin Elmer IVIS every five days from the day of surgery, and intensity was analyzed by Living Image Software v.4.3.1. […] During the treatment course, the body weight of each post-surgery mouse was monitored daily. […]

| Structure (SMILES) | distribution of internalized NA-647 relative to lysosome marker LAMP1 [1] | concentration that labels HSP90 with higher efficiency [2] | biotin labeling of HSP90 (detected by HRP-streptavidin) ([2]; various concentrations) | lung metastasis (bioluminescence) [3] | tumor recurrence at the surgical site (bioluminescence) [3] |
| --- | --- | --- | --- | --- | --- |
| N#CCN(C(=O)CCCC[C@@H]1SC[C@@H]2NC(=O)N[C@@H]21)S(=O)(=O)c1ccc(C(=O)NCCCn2c(Sc3cc4c(cc3I)OCO4)nc3c(N)ncnc32)cc1 [HAC-B, N-(3-(6-amino-8-((6-iodobenzo[d][1,3]dioxol-5-yl)thio)-9H-purin-9-yl)propyl)-4-(N-(cyanomethyl)-N-(5-((3aS,4S,6aR)-2-oxohexahydro-1H-thieno[3,4-d]imidazol-4-yl)pentanoyl)sulfamoyl)benzamide] | mainly overlapped with the lysosome maker, LAMP1 | over 0.8 μM | modified HSP90 within 2 h in a concentration-dependent manner |  |  |
| Cc1sc2c(c1C)C(c1ccc(Cl)cc1)=N[C@@H](CC(=O)NCc1cn(CCCC(=O)N(CC#N)S(=O)(=O)c3ccc(C(=O)NCCCn4c(Sc5cc6c(cc5I)OCO6)nc5c(N)ncnc54)cc3)nn1)c1nnc(C)n1-2 [iHAC, (S)—N-(3-(6-amino-8-((6-iodobenzo[d][1,3]dioxol-5-yl)thio)-9H-purin-9-yl)propyl)-4-(N-(4-(4-((2-(4-(4-chlorophenyl)-2,3,9-trimethyl-6H-thieno[3,2-f][1,2,4]triazolo[4,3-a][1,4]diazepin-6-yl)acetamido)methyl)-1H-1,2,3-triazol-1-yl)butanoyl)-N-(cyanomethyl)sulfamoyl)benzamide] |  |  |  | started to exhibit obvious lung metastasis from day 15 after surgery | showed some anti-relapse effect during the dosing time, but the mice finally showed substantially recurrent tumors on day 20 |
